Results: patent publication US7378387B2, “Method of suppressing immune response by reducing intracellular content of glutathione in macrophages and monocytes” (Ajinomoto Co., Inc., priority 1997, dated 2008)
Positions of bridges follow the written chain, without caps; N, C: chain ends. Residues, ends and D or L forms follow the SMILES beside them. Chains are numbered I, II in the order given.

How the values were obtained:
[1] = tested on: reduced glutathione in intraperitoneal macrophages; experiment: Reduced glutathione in intraperitoneal macrophages of NOD mice by ACAS (Example 22); assay type: in vivo; conditions: doses given per substance
[2] = tested on: peritoneal exudate cells (macrophages); experiment: Induction of oxidative or reductive macrophages by administration, monochlorobimane/ACAS (Example 9); assay type: in vivo, DBA/2 mice; conditions: intraperitoneally 20 μg/0.5 ml/h each, twice a week for three weeks, 9-11 weeks of age
Method: This was clarified by harvesting peritoneal exudate cells 20 hours after the completion of the administration, adhering the cells to the plastic surface, then reacting the cells with 10 μM of monochlorobimane at 37° C. for 30 minutes, and analyzing the reaction product with ACAS. The increase in the amounts of oxidative macrophages can easily be determined visually from the fact that almost no reaction product with monochlorobimane is observed, namely, a gray or blue image is provided, and the increase in the amounts of reductive macrophages from the fact that a red or yellow image is provided respectively. […] Meanwhile, the same examination was conducted by harvesting peritoneal exudate cells after 20 hours of the administration of 2 mg of N-acetylcystine (NAC).

[3] = tested on: macrophage-like cells from tissues of rheumatoid arthritis patients; experiment: Intracellular GSH by ACAS in macrophage-like cells from tissues of rheumatoid arthritis patients (Example 17); assay type: cell-based, human; conditions: 3 hours; for induction of oxidative macrophage with the reduced amount of intracellular glutathione: added at 2 μM; for relative ratio of oxidative macrophages (reduced amount of intracellular glutathione) compared with saline-added group: added at 2 mM
Method: Synovial tissue was aseptically sampled from tissues resected during joint surgery. The sampled synovial tissue was rinsed in phosphate buffer, from which the surface was peeled off in a petri dish containing the same phosphate buffer. Then, the resulting synovial tissue was cut into pieces with a pair of scissors. To the pieces were added 2% hyaluronidase (manufactured by Sigma), 0.2% DNase (derived from bovine pancreas) and 5% collagenase, for enzymatic treatment at 37° C. for 2 hours. After discarding the resulting debris, a cell fraction recovered by centrifugation was adjusted to 5×10^5 cells/ml in a phenol red-free DMEM culture medium supplemented with 10% FCS (manufactured by Nikken Biology Co.). For 3 hours, the cells were allowed to adhere to the plastic surface. Plastic surface adherent macrophage-like cells harvested with a rubber policeman were then subjected to rinsing in combination with centrifugation three times using the culture medium under ice cooling. The resulting cells were designated as synovial tissue-derived macrophages and were then subjected to the following experiments.
By the same manner as in Example 3, macrophage-like cells were collected from tissues of rheumatoid arthritis patients, and were then suspended and adjusted in a phenol red-free RPMI 1640 culture medium supplemented with 10% fetal calf serum to 3×10^6 cells/ml. The suspension was divided in 100-μl portions on Lab-Tek Chamber Slide (#136439; manufactured by NUNC, CO.), for culturing in 5% CO2 at 37° C. for 3 hours; after discarding the nonadherent cells, the 200-μl serum-free culture medium further containing any of the following chemical agents was fed to the resulting culture, for reaction for 3 hours; and then, the resulting culture was rinsed three times, followed by addition of the serum-free culture medium of 200 μl and addition of monochlorobimane to a final concentration of 10 μM, for reaction for 30 minutes. The amount of intracellular GSH was assayed by imaging analysis with an ACAS system (manufactured by Meridian Co.).

[4] = tested on: spontaneous onset of insulin-dependent diabetes mellitus; experiment: Onset of diabetes mellitus in NOD mice dosed at age 9 to 11 weeks (Example 25); assay type: in vivo; conditions: nine times
Description: NOD mice purchased from Nippon Clair, Co. were naturally mated together. Among the off spring mice, a colony of NOD mice with a high frequency of the spontaneous onset of insulin-dependent diabetes mellitus was established. Female NOD mice from the colony were used for the present experiment. Chemical agents were orally or intraperitoneally administered to the NOD mice aged 9 to 11 weeks three times per week, in total nine times; and based on the test results of urine glucose, positive or negative, the onset of diabetes mellitus was followed once per week. Urine glucose was detected, using Uropaper (BM Test Glucose 5000, manufactured by Yamanouchi Pharmaceuticals, Co. Ltd.). The onset was judged on week 22; the doses were the same as in Example 24.

[5] = tested on: adjuvant-induced arthritis; experiment: Adjuvant-induced arthritis (AA) in rats, joint swelling (Examples 18 and 19); assay type: in vivo, Lewis rats; conditions: Table 4
Method: Adjuvant-induced arthritis was triggered in Lewis rats in a conventional manner; and the effects of chemical agents were examined in the animals. Adjuvant-induced arthritis is well known as an experimental arthritis inducible in rats [Taurog et al., Meth. Enzymol. 162, 339-355 (1988)]. […] An adjuvant is administered at 1 mg/0.1 ml per rate at a site of caudal root. The edema reaches its peak about 2 to 3 weeks after the administration of the adjuvant. The edema is triggered by inflammatory infiltration of monocytes. Swollen joints are measured with a micrometer every day; comparing the diameters of the joints prior to and after adjuvant administration and after initiation of the treatment with chemical agents with the diameters of the joints in the control group, the effects of the chemical agents were expressed as the ratio in % of joint swelling in the experimental groups to joint swelling in the control group. The effects were determined on day 15 after adjuvant administration. The chemical agents were given, starting the day next to the day of adjuvant administration, and every 3 days thereafter.
A single dose is 1 mg/kg for (NAC)2 and (NAC-OMe)2; 100 mg/kg for NAC; and 0.1 mg/kg for lentinan.
Adjuvant-induced arthritis was induced in Lewis rats in a conventional manner. In the same manner as in Example 11, the effects of chemical agents were examined in these rats. The conditions were the same as described above.

[6] = tested on: spontaneous onset of insulin-dependent diabetes mellitus; experiment: Onset of diabetes mellitus in NOD mice dosed at age 3 to 6 and 9 to 11 weeks (Example 24); assay type: in vivo; conditions: doses as in the table line, 15 times in total, judged on week 22, saline 60
Description: NOD mice purchased from Nippon Clair, Co. were naturally mated together. Among the off spring mice, a colony of NOD mice with a high frequency of the spontaneous onset of insulin-dependent diabetes mellitus was established. Female NOD mice from the colony were used for the present experiment. […] Urine glucose was detected, using Uropaper (BM Test Glucose 5000, manufactured by Yamanouchi Pharmaceuticals, Co. Ltd.). The onset was judged on week 22.

[7] = tested on: insulin-non-dependent diabetes mellitus; experiment: Blood sugar level in db/db mice (Example 26); assay type: in vivo; conditions: intraperitoneal, age 4 to 9 weeks, three times per week; at satiation; saline 100
Description: db/db mice purchased from Nippon Clair, Co. were naturally mated together. Among the off spring mice, a colony of db/db mice with a high frequency of the spontaneous onset of insulin-non-dependent diabetes mellitus was established. Male db/db mice from the colony were used for the present experiment. Chemical agents were intraperitoneally administered to the db/db mice aged 4 to 9 weeks three times per week, in total 18 times; and based on the level of blood sugar in the mice at satiation, the effects of the chemical agents on the improvement of the diseased conditions of insulin-non-dependent diabetes mellitus were followed once per week. The doses were the same as in Example 24.

[8] = intraperitoneal dosing on alternate days from age 3-4 weeks
[9] = oral dosing on alternate days from age 3-4 weeks
[10] = intraperitoneal, judged on week 22, doses as in Example 24, saline 67

| Compound | relative ratio of oxidative macrophages compared with saline-dosed NOD mice [1, 8] | induction of oxidative macrophages on ACAS [2] | induction of oxidative macrophage with the reduced amount of intracellular glutathione [3] | relative ratio of oxidative macrophages compared with saline-dosed NOD mice [1, 9] | relative ratio of oxidative macrophages (reduced amount of intracellular glutathione) compared with saline-added group [3] | other results |
| --- | --- | --- | --- | --- | --- | --- |
| O=C(O)CCCC[C@@H]1CCSS1 (racemic) [lipoic acid] | same action is also observed |  |  |  |  |  |
| CC(=O)N[C@@H](CSSC[C@H](NC(C)=O)C(=O)OC(C)C)C(=O)OC(C)C [(NAC-OiPr)2, N,N′-diacetylcystine diisopropyl ester] |  | induction of oxidative macrophages was confirmed | confirmed |  |  |  |
| COC(=O)[C@H](CSSC[C@H](NC(=O)[C@H](C)N)C(=O)OC)NC(=O)[C@H](C)N [(NAlaC-OMe)2, N,N′-di-L-alanylcystine dimethyl ester] (I: H-Ala-Cys-OMe / II: H-Ala-Cys-OMe; disulfide I:2-II:2) |  | induction of oxidative macrophages was confirmed | confirmed |  |  | Frequency (%) of onset of diabetes mellitus ([4]; route not given, judged on week 22, saline 67): 11%; Ratio in % of joint swelling in experimental groups to joint swelling in control group ([5]; intravenous): 45% |
| CC(=O)N[C@@H](CSSC[C@H](NC(C)=O)C(=O)OCCCCO[N+](=O)[O-])C(=O)O [N,N′-diacetylcystine nitroxybutyl ester] |  | induction of oxidative macrophages was confirmed | confirmed |  |  |  |
| CC(=O)N[C@@H](CS)C(=O)OCCCCO[N+](=O)[O-] [N-acetylcysteine nitroxybutyl ester] | same action is also observed |  |  | same action is also observed | same action was also observed |  |
| CCOC(=O)CNC(=O)[C@H](CS)NC(=O)CC[C@H](N)C(=O)OCC [glutathione diethyl ester] | same action is also observed |  |  | same action is also observed | same action was also observed | Frequency (%) of onset of diabetes mellitus ([6]; intraperitoneal): 0%; Frequency (%) of onset of diabetes mellitus ([6]; oral): 0%; Frequency (%) of onset of diabetes mellitus [4, 10]: 67%; Ratio in % of joint swelling in experimental groups to joint swelling in control group ([5]; intraperitoneal, 100 mg/kg): 132%; Relative ratio % of blood sugar level, 6 weeks [7]: 82%; Relative ratio % of blood sugar level, 7 weeks [7]: 62%; Relative ratio % of blood sugar level, 8 weeks [7]: 60% |
| COC(=O)C(N)CCC(=O)NC(CS)C(=O)OC (stereo not shown) [γ-glutamylcysteine dimethyl ester] | same action is also observed |  |  |  | same action was also observed | Frequency (%) of onset of diabetes mellitus ([6]; intraperitoneal): 10%; Frequency (%) of onset of diabetes mellitus ([6]; oral): 20%; Frequency (%) of onset of diabetes mellitus [4, 10]: 55%; Ratio in % of joint swelling in experimental groups to joint swelling in control group ([5]; intraperitoneal, 100 mg/kg): 120%; Relative ratio % of blood sugar level, 6 weeks [7]: 85%; Relative ratio % of blood sugar level, 7 weeks [7]: 65%; Relative ratio % of blood sugar level, 8 weeks [7]: 60% |
| glutathione nitroxybutyl ester | same action is also observed |  |  | same action is also observed | same action was also observed |  |
